Experimental data as given in patent publication US20220273530A1, “BIOADHESIVE PARTICLES COMPRISING ACTIVE AGENTS, AND USES THEREOF” (SKINOSIVE, priority 2019, published 2022).

How the values were obtained:
[1] = cited from earlier work
[2] = λmax UV absorbance of free and encapsulated UV filter; format: physicochemical; details: free UV filter in ethanol
Experimental: λmax UV absorbance of free Uvinul A plus in ethanol was measured at 357 nm and λmax UV absorbance of Uvinul A plus encapsulated PLA-PEG-Mal particles in water was measured at 360 nm.

Structure (SMILES) | UV filter logP [1] | λmax UV absorbance of free UV filter [2]
CCCCC(CC)COc1ccc(-c2nc(-c3ccc(OC)cc3)nc(-c3ccc(OCC(CC)CCCC)cc3O)n2)c(O)c1 (centres unmarked) [Bemotrizinol, bis-ethylhexyloxyphenol methoxyphenyl triazine] | 10.4 | –
CC1CCC(C(C)C)C(OC(=O)c2ccccc2N)C1 (centres unmarked) [Meradimate] | 5.1 | –
CCCCC(CC)COC(=O)c1ccccc1O (centres unmarked) [Octisalate] | 5.7 | –
CCCCC(CC)COC(=O)C(C#N)=C(c1ccccc1)c1ccccc1 (centres unmarked) [Octocrylene] | 7.1 | 304 nm
COc1cc(O)c(C(=O)c2ccccc2)cc1S(=O)(=O)O [Sulisobenzone] | 2.2 | –
CCCCCCOC(=O)c1ccccc1C(=O)c1ccc(N(CC)CC)cc1O [Uvinul A Plus, diethylamino hydroxybenzoyl hexyl benzoate] | 6.5 | 357 nm
